Assay results: DBAASP
≈ marks a conversion by molar mass, not a printed value. Blank lines part the entries; values can stand above or below the molecule they belong to.

What was measured:
Assay in all cases: ≥ marks a high value that may be exact or a test limit, other limits are often not marked, values filed in µg/mL are converted to µM
[1] = system: Staphylococcus aureus ATCC 29737
[2] = system: Candida albicans ATCC 10231
[3] = system: Pseudomonas aeruginosa ATCC 9027
[4] = system: Staphylococcus epidermidis ATCC 12228
[5] = system: Escherichia coli ATCC 25922
[6] = system: Staphylococcus aureus USA 100
[7] = system: Candida albicans ATCC 90028
[8] = system: Staphylococcus aureus USA 300
[9] = system: Escherichia coli ATCC 27325
[10] = system: Saccharomyces cerevisiae ATCC 44774
[11] = system: Pseudomonas putida ATCC 17426
[12] = system: Cryptococcus neoformans ATCC 34881
[13] = system: Streptococcus mutans ATCC 25175
[14] = system: Staphylococcus aureus ATCC 15752
[15] = system: Bacillus subtilis ATCC 62037
[16] = system: Salmonella enterica subsp. enterica serovar Enteritidis ATCC 13076
Escherichia coli BW25113 = system: Escherichia coli BW25113
Escherichia coli AS1.349 = system: Escherichia coli AS1.349
[17] = system: Staphylococcus aureus AS1.72
[18] = system: Pseudomonas aeruginosa CGMCC 1.860
Bacillus cereus AS1.126 = system: Bacillus cereus AS1.126
[19] = system: Enterococcus faecalis CGMCC 1.595
[20] = system: Lactococcus lactis AS1.1690
[21] = system: Enterococcus faecium CGMCC 1.2334
[22] = system: Listeria monocytogenes LO28
[23] = system: Cronobacter sakazakii DPC 6440

MIC [1]: 20.8 µM (≈ 31.3 µg/mL) | MIC [2]: 82.9 µM (≈ 125 µg/mL) | MIC [3]: 41.4 µM (≈ 62.5 µg/mL) | MIC [4]: 1.33 µM (≈ 2 µg/mL) | MIC [5]: 10.3 µM (≈ 15.6 µg/mL)
SMILES: CC[C@H](C)[C@H](N)C(=O)N[C@@H](CCCN=C(N)N)C(=O)N[C@H](C(=O)N[C@@H](CCCCN)C(=O)N[C@H](C(=O)N[C@@H](CCCN=C(N)N)C(=O)N[C@H](C(=O)N[C@@H](CCCCN)C(=O)N[C@H](C(=O)N[C@@H](CCCN=C(N)N)C(=O)N[C@H](C(=O)N[C@@H](CCCCN)C(N)=O)C(C)C)[C@@H](C)CC)C(C)C)[C@@H](C)CC)C(C)C [IRVKIRVKIRVK]

MIC [6]: ≥ 100 µM | MIC [3]: > 100 µM | MIC [7]: ≥ 100 µM | MIC [8]: ≥ 100 µM
SMILES: CC(=O)N[C@@H](CCCCN)C(=O)N1CCC[C@H]1C(=O)N[C@H](C(N)=O)C(C)C [KPV]

MIC [9]: 4.12 µM (≈ 8 µg/mL) | MIC [10]: 8.23 µM (≈ 16 µg/mL) | MIC [2]: 8.23 µM (≈ 16 µg/mL) | MIC [11]: 8.23 µM (≈ 16 µg/mL) | MIC [12]: 4.12 µM (≈ 8 µg/mL) | MIC [13]: 16.5 µM (≈ 32 µg/mL) | MIC [14]: 16.5 µM (≈ 32 µg/mL) | MIC [15]: 8.23 µM (≈ 16 µg/mL) | MIC [16]: 8.23 µM (≈ 16 µg/mL)
SMILES: CC(C)[C@H](NC(=O)[C@H](CCCCN)NC(=O)CNC(=O)CNC(=O)[C@H](CCC(N)=O)NC(=O)[C@H](CCCCN)NC(=O)CNC(=O)[C@H](CCCN=C(N)N)NC(=O)[C@@H](N)CCCCN)C(=O)N[C@@H](CCCN=C(N)N)C(=O)N[C@@H](C)C(=O)N[C@@H](CCCCN)C(=O)N[C@@H](C)C(=O)N[C@@H](CCCCN)C(=O)N[C@H](C(=O)N[C@@H](CCCN=C(N)N)C(=O)N[C@@H](CO)C(=O)N[C@@H](CO)C(=O)O)[C@@H](C)O [KRGKQGGKVRAKAKTRSS]

MIC [9]: 0.812 µM (≈ 2 µg/mL) | MIC [10]: 0.812 µM (≈ 2 µg/mL) | MIC [2]: 0.812 µM (≈ 2 µg/mL) | MIC [11]: 0.812 µM (≈ 2 µg/mL) | MIC [12]: 0.812 µM (≈ 2 µg/mL) | MIC [13]: 0.812 µM (≈ 2 µg/mL) | MIC [14]: 0.812 µM (≈ 2 µg/mL) | MIC [15]: 0.812 µM (≈ 2 µg/mL) | MIC [16]: 0.406 µM (≈ 1 µg/mL)
SMILES: CC(C)C[C@H](NC(=O)CNC(=O)[C@H](C)NC(=O)[C@@H](N)CCCN=C(N)N)C(=O)N[C@@H](CCC(N)=O)C(=O)N[C@@H](Cc1ccccc1)C(=O)N1CCC[C@H]1C(=O)N[C@H](C(=O)NCC(=O)N[C@@H](CCCCN)C(=O)N[C@@H](CC(C)C)C(=O)N[C@@H](CC(C)C)C(=O)N[C@@H](CCCCN)C(=O)N[C@@H](CCCCN)C(=O)N[C@@H](CC(C)C)C(=O)N[C@@H](CC(C)C)C(=O)N[C@@H](CCCCN)C(=O)N[C@@H](CCCN=C(N)N)C(=O)N[C@@H](CC(C)C)C(=O)N[C@@H](CCCCN)C(=O)N[C@@H](CCCN=C(N)N)C(=O)O)C(C)C [RAGLQFPVGKLLKKLLKRLKR]

MIC (Escherichia coli BW25113): 16 µM (≈ 36 µg/mL)
SMILES: CC[C@H](C)[C@H](NC(=O)[C@@H]1CCCN1C(=O)[C@@H]1CCCN1C(=O)[C@H](CCCN=C(N)N)NC(=O)[C@H](Cc1ccccc1)NC(=O)[C@@H](N)CCCN=C(N)N)C(=O)N[C@@H](CCCN=C(N)N)C(=O)N[C@@H](CCCN=C(N)N)C(=O)N1CCC[C@H]1C(=O)N1CCC[C@H]1C(=O)N[C@H](C(=O)N[C@@H](CCCN=C(N)N)C(=O)N1CCC[C@H]1C(=O)N1CCC[C@H]1C(=O)N[C@@H](Cc1ccccc1)C(=O)N[C@@H](Cc1ccc(O)cc1)C(=O)N[C@@H](Cc1c[nH]c2ccccc12)C(=O)O)[C@@H](C)CC [RFRPPIRRPPIRPPFYW]

MIC (Escherichia coli AS1.349): ≥ 100 µM | MIC [17]: ≥ 100 µM | MIC [18]: ≥ 100 µM | MIC (Bacillus cereus AS1.126): ≥ 100 µM | MIC [19]: ≥ 100 µM | MIC [20]: ≥ 100 µM | MIC [21]: ≥ 100 µM
SMILES: C[C@H](NC(=O)[C@H](CCCN=C(N)N)NC(=O)[C@H](Cc1cnc[nH]1)NC(=O)[C@H](Cc1c[nH]c2ccccc12)NC(=O)[C@H](Cc1ccccc1)NC(=O)[C@H](CCCN=C(N)N)NC(=O)[C@@H](N)CCCN=C(N)N)C(=O)N[C@@H](Cc1cnc[nH]1)C(=O)O [RRFWHRAH]

MIC (Escherichia coli AS1.349): 6.25 µM (≈ 15.9 µg/mL) | MIC [17]: 3.13 µM (≈ 7.96 µg/mL) | MIC [18]: 1.56 µM (≈ 3.97 µg/mL) | MIC (Bacillus cereus AS1.126): 3.13 µM (≈ 7.96 µg/mL) | MIC [19]: 1.56 µM (≈ 3.97 µg/mL) | MIC [20]: 3.13 µM (≈ 7.96 µg/mL) | MIC [21]: 3.13 µM (≈ 7.96 µg/mL)
SMILES: CC(C)C[C@H](NC(=O)[C@H](CCCCN)NC(=O)[C@H](CCCN=C(N)N)NC(=O)[C@H](Cc1cnc[nH]1)NC(=O)[C@H](C)NC(=O)[C@H](CCCN=C(N)N)NC(=O)[C@H](Cc1cnc[nH]1)NC(=O)[C@H](Cc1c[nH]c2ccccc12)NC(=O)[C@H](Cc1ccccc1)NC(=O)[C@H](CCCN=C(N)N)NC(=O)[C@H](CCCN=C(N)N)NC(=O)[C@H](Cc1c[nH]c2ccccc12)NC(=O)[C@H](Cc1cnc[nH]1)NC(=O)[C@H](CCCN=C(N)N)NC(=O)[C@H](Cc1c[nH]c2ccccc12)NC(=O)[C@@H](NC(=O)[C@H](CCCCN)NC(=O)[C@@H](N)CO)C(C)C)C(=O)O [SKVWRHWRRFWHRAHRKL]

MIC (Escherichia coli AS1.349): 6.25 µM (≈ 10.8 µg/mL) | MIC [17]: 3.13 µM (≈ 5.39 µg/mL) | MIC [18]: 3.13 µM (≈ 5.39 µg/mL) | MIC (Bacillus cereus AS1.126): 3.13 µM (≈ 5.39 µg/mL) | MIC [19]: 3.13 µM (≈ 5.39 µg/mL) | MIC [20]: 6.25 µM (≈ 10.8 µg/mL) | MIC [21]: 3.13 µM (≈ 5.39 µg/mL)
SMILES: CC(C)[C@H](N)C(=O)N[C@@H](Cc1c[nH]c2ccccc12)C(=O)N[C@@H](CCCN=C(N)N)C(=O)N[C@@H](Cc1cnc[nH]1)C(=O)N[C@@H](Cc1c[nH]c2ccccc12)C(=O)N[C@@H](CCCN=C(N)N)C(=O)N[C@@H](CCCN=C(N)N)C(=O)N[C@@H](Cc1ccccc1)C(=O)N[C@@H](Cc1c[nH]c2ccccc12)C(=O)N[C@@H](Cc1cnc[nH]1)C(=O)N[C@@H](CCCN=C(N)N)C(=O)O [VWRHWRRFWHR]

MIC [22]: ≥ 156 µM | MIC [23]: ≥ 625 µM
SMILES: CC[C@H](C)[C@H](NC(=O)[C@@H](N)Cc1c[nH]c2ccccc12)C(=O)N[C@@H](CCC(N)=O)C(=O)N1CCC[C@H]1C(=O)N[C@@H](C)C(=O)N[C@H](C(=O)N[C@@H](C)C(=O)N[C@H](C(=O)N[C@H](C(=O)N1CCC[C@H]1C(=O)N[C@@H](Cc1ccc(O)cc1)C(=O)N[C@H](C(=O)N[C@@H](C)C(=O)N[C@@H](Cc1ccc(O)cc1)C(=O)N[C@@H](CC(C)C)C(=O)O)C(C)C)[C@@H](C)CC)C(C)C)[C@@H](C)O [WIQPATAVIPYVAYL]

MIC [22]: 4.88 µM (≈ 10.5 µg/mL) | MIC [23]: ≥ 78.1 µM
SMILES: CC[C@H](C)[C@H](NC(=O)[C@@H](N)Cc1c[nH]c2ccccc12)C(=O)N[C@@H](CCC(N)=O)C(=O)N1CCC[C@H]1C(=O)N[C@@H](CCCCN)C(=O)N[C@H](C(=O)N[C@@H](CCCCN)C(=O)N[C@H](C(=O)N[C@H](C(=O)N1CCC[C@H]1C(=O)N[C@@H](Cc1c[nH]c2ccccc12)C(=O)N[C@@H](Cc1c[nH]c2ccccc12)C(=O)N[C@@H](Cc1c[nH]c2ccccc12)C(=O)N[C@@H](Cc1c[nH]c2ccccc12)C(=O)N[C@@H](Cc1c[nH]c2ccccc12)C(=O)O)[C@@H](C)CC)C(C)C)[C@@H](C)O [WIQPKTKVIPWWWWW]

MIC [22]: ≥ 156 µM | MIC [23]: ≥ 625 µM
SMILES: CC[C@H](C)[C@H](NC(=O)[C@@H](N)Cc1c[nH]c2ccccc12)C(=O)N[C@@H](CCC(N)=O)C(=O)N1CCC[C@H]1C(=O)N[C@@H](CCCCN)C(=O)N[C@H](C(=O)N[C@@H](CCCCN)C(=O)N[C@H](C(=O)N[C@H](C(=O)N1CCC[C@H]1C(=O)O)[C@@H](C)CC)C(C)C)[C@@H](C)O [WIQPKTKVIP]

MIC [6]: ≥ 100 µM
SMILES: NC(=O)[C@H](Cc1c[nH]c2ccccc12)NC(=O)[C@H](Cc1c[nH]c2ccccc12)NC(=O)[C@H](Cc1c[nH]c2ccccc12)NC(=O)[C@@H](N)Cc1c[nH]c2ccccc12 [WWWW]
